Measurements as given in article PMC8667902 (Journal of Enzyme Inhibition and Medicinal Chemistry, 2021).

Columns and labels:
ratAChE = biological target: T1, ratAChE (Rattus norvegicus, UniProt P37136); assay: Ellman's method, AChE from rat cortex homogenate; format: biochemical; conditions: for SI = Selectivity index = IC50 (BuChE)/IC50 (AChE): ratBuChE over rat AChE
T1 sequence (P37136 32-614): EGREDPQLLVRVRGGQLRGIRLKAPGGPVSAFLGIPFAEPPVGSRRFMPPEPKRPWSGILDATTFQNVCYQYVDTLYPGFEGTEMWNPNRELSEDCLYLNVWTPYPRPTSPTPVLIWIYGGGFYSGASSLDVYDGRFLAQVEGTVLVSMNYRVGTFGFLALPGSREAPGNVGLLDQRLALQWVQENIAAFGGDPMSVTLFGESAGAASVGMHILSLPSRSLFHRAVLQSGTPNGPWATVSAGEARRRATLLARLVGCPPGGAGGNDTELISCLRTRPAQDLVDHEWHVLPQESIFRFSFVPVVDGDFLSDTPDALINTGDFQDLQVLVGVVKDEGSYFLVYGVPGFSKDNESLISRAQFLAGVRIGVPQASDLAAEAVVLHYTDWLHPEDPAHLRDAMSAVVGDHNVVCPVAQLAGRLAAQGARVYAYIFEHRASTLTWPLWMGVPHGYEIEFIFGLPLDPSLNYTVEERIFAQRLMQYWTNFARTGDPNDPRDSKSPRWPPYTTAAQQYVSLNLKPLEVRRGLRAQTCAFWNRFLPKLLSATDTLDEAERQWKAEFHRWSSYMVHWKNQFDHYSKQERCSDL

eeAChE = eeAChE (Electrophorus electricus, UniProt O42275); assay: Ellman's method, electric eel AChE; format: biochemical
ratBuChE = ratBuChE (Rattus norvegicus, UniProt Q9JKC1); assay: Ellman's method, BuChE from rat serum; format: biochemical
[1] = Oxygen Radicals Absorbance Capacity by Fluorescence; conditions: for ORAC: Trolox as reference
Aβ1–42 [2] = biological target: T2, Aβ1–42 (Homo sapiens, UniProt P05067); assay: Inhibition of self-induced Aβ1–42 aggregation; format: biochemical; conditions: read-out: Inhibition of Aβ1–42 aggregation (%) Self-induced, 25 μM; ThT assay
Aβ1–42 [3] = biological target: T2, Aβ1–42; assay: Inhibition of Cu2+-induced Aβ1–42 aggregation; format: biochemical; conditions: read-out: Inhibition of Aβ1–42 aggregation (%) Cu^2+-induced
huMAO-A = biological target: T3, huMAO-A (Homo sapiens, UniProt P21397); assay: huMAO-A inhibition, fluorescence method; format: biochemical; conditions: for inhibition at 10 µM: read-out: MAO-A percent inhibition rate
T3 sequence (P21397 1-527): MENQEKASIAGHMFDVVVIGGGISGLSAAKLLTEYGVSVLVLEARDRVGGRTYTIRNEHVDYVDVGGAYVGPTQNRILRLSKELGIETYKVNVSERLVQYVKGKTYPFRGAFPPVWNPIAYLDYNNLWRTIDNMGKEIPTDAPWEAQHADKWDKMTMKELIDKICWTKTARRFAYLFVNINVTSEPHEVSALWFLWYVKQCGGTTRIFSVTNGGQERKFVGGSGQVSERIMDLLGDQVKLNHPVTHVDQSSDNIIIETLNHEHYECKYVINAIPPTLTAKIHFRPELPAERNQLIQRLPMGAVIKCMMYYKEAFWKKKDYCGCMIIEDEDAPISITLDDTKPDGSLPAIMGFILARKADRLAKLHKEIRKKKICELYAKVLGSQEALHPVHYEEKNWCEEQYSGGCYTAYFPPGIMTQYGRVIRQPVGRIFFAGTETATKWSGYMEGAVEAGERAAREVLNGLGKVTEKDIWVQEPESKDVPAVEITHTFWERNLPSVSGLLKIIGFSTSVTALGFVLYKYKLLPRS

Aβ1–42 fibrils [4] = biological target: T4, Aβ1–42 fibrils (Homo sapiens, UniProt P05067); assay: Disaggregation of self-induced Aβ1–42 aggregation; format: biochemical; conditions: 25 μM; ThT assay
Aβ1–42 fibrils [5] = biological target: T4, Aβ1–42 fibrils; assay: Disaggregation of Cu2+-induced Aβ1–42 aggregation; format: biochemical; conditions: 25 μM; ThT assay
huMAO-B = biological target: T5, huMAO-B (Homo sapiens, UniProt P27338); assay: biochemical
T5 sequence (P27338 1-520): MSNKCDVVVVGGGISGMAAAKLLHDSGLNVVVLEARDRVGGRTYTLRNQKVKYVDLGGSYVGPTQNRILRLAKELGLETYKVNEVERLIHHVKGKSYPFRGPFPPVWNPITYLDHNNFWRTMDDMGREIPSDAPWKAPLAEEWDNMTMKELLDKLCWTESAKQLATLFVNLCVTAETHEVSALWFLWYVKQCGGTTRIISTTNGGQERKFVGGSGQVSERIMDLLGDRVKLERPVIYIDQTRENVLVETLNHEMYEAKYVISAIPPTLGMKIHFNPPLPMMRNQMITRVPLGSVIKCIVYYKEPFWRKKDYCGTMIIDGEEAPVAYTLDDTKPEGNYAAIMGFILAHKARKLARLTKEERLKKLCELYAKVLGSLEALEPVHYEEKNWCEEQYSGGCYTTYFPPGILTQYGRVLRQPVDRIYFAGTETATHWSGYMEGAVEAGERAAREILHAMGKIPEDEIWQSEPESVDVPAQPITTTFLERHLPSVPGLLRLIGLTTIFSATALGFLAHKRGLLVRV

T4 sequence (P05067 672-713): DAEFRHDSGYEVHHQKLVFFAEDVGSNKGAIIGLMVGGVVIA
T2 sequence (P05067 672-713): as above
ratBuChE, sequence (Q9JKC1 24-597): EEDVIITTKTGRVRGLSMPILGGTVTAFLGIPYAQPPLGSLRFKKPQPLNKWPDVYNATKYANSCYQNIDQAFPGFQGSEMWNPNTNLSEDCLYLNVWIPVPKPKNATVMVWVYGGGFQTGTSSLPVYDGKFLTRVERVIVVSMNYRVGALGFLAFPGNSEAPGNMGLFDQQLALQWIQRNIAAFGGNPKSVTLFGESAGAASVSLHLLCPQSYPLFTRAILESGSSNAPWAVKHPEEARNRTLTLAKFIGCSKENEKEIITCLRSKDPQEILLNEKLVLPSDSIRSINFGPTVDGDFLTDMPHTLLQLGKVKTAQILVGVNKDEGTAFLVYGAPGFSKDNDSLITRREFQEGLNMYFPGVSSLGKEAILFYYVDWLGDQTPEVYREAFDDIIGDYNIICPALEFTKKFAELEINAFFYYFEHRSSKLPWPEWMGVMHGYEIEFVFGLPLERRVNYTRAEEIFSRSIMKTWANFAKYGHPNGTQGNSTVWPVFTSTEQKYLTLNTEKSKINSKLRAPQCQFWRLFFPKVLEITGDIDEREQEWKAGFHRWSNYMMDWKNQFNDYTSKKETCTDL
eeAChE, sequence (O42275 24-633): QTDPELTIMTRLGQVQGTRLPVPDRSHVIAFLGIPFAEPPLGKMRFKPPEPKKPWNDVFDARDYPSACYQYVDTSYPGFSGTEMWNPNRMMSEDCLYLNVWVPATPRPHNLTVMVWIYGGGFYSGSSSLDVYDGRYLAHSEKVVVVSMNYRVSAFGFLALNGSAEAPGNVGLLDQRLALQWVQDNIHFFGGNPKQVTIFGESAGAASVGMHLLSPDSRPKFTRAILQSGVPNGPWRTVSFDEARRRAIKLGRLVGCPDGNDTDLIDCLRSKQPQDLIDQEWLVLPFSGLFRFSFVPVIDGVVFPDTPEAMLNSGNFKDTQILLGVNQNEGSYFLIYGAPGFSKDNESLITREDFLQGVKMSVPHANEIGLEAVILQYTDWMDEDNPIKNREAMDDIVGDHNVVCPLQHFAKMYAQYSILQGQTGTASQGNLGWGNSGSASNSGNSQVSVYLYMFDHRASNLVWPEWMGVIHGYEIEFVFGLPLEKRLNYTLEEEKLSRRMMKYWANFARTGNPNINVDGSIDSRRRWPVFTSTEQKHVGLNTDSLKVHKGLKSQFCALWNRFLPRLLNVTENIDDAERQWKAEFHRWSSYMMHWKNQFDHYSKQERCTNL

Row | SMILES | IC50 (ratAChE) [µM] | IC50 (eeAChE) [µM] | IC50 (ratBuChE) [µM] | ORAC [1] | ORAC-FL value ([1]; Trolox equivalents) [eq] | inhibition at 25 µM (Aβ1–42 [2]) [%] | inhibition at 25 µM (Aβ1–42 [3]) [%] | inhibition at 10 µM (huMAO-A) [%] | SI = Selectivity index = IC50 (BuChE)/IC50 (AChE) (ratAChE) | Disaggregation of Aβ1–42 aggregation (%) Self-induced (Aβ1–42 fibrils [4]) [%] | Disaggregation of Aβ1–42 aggregation (%) Cu^2+-induced (Aβ1–42 fibrils [5]) [%] | IC50 (huMAO-B) [µM] | SI = selectivity index = IC50 (hMAO-A)/IC50 (hMAO-B) (huMAO-B) | IC50 (huMAO-A) [µM]
1 | COc1cc(O)c(C(=O)/C=C/c2ccc(O)cc2)c(OC)c1OC [Compound 8, (E)-1-(6-hydroxy-2,3,4-trimethoxyphenyl)-3-(4-hydroxyphenyl)-2-propen-1-one] | > 500 | > 500 | > 500 | 5.4 ± 0.01 μM of Trolox equivalent/μM of compounds | 5.4 | 23.1 ± 0.01 | 33.2 ± 0.01 | 22.9 |  |  |  |  |  | 
2 | COc1ccccc1CN(C)CCCOc1ccc(/C=C/C(=O)c2c(O)cc(OC)c(OC)c2OC)cc1 [Compound 9a, (E)-1-(6-Hydroxy-2,3,4-trimethoxyphenyl)-3-(4-(3-((2-methoxybenzyl)(methyl)amino)propoxy)phenyl)prop-2-en-1-one] | 3.12 ± 0.02 | 1.46 ± 0.02 | > 500 | 1.01 ± 0.01 μM of Trolox equivalent/μM of compounds |  | 57.4 ± 0.01 | 66.2 ± 0.02 | 13.9 | >160.3 | 26.8 ± 0.02 | 54.2 ± 0.02 | 3.8 ± 0.02 |  | 
3 | CCN(CCCOc1ccc(/C=C/C(=O)c2c(O)cc(OC)c(OC)c2OC)cc1)Cc1ccccc1OC [Compound 9b, (E)-3-(4-(3-(ethyl(2-methoxybenzyl)amino)propoxy)phenyl)-1-(6-hydroxy-2,3,4-trimethoxyphenyl)prop-2-en-1-one] | 0.67 ± 0.01 | 1.62 ± 0.01 | > 500 | 0.93 ± 0.01 μM of Trolox equivalent/μM of compounds |  | 63.4 ± 0.03 | 71.6 ± 0.01 |  | >746.3 | 22.2 ± 0.03 | 55.1 ± 0.22 | 8.1 ± 0.03 | 2.4 | 19.8 ± 0.22
4 | COc1ccccc1CN(C)CCCCOc1ccc(/C=C/C(=O)c2c(O)cc(OC)c(OC)c2OC)cc1 [Compound 9c, (E)-1-(6-hydroxy-2,3,4-trimethoxyphenyl)-3-(4-(4-((2-methoxybenzyl)(methyl)amino)butoxy)phenyl)prop-2-en-1-one] | 1.77 ± 0.01 | 1.5 ± 0.02 | > 500 | 0.97 ± 0.01 μM of Trolox equivalent/μM of compounds |  | 65 ± 0.01 | 74.1 ± 0.02 |  | >282.5 | 45.7 ± 0.12 | 66.6 ± 0.36 | 23.6 ± 0.12 | 1.5 | 35.7 ± 0.36
5 | COc1ccccc1CN(C)CCCCCCOc1ccc(/C=C/C(=O)c2c(O)cc(OC)c(OC)c2OC)cc1 [Compound 9e, (E)-1-(6-hydroxy-2,3,4-trimethoxyphenyl)-3-(4-(6-((2-methoxybenzyl)(methyl)amino)hexyloxy)phenyl)prop-2-en-1-one] | 1.68 ± 0.01 | 1 ± 0.03 | > 500 | 0.99 ± 0.02 μM of Trolox equivalent/μM of compounds |  | 65.3 ± 0.02 | 76.2 ± 0.04 |  | >297.6 | 58.2 ± 0.01 | 77.0 ± 0.57 | 2.5 ± 0.01 | 15.1 | 37.8 ± 0.57
